Assay results reported in ChEMBL document CHEMBL1201862, “PubChem BioAssay data set” (2004).
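Protocol summary: plate cells (96-well), add compound at 5 concentrations, incubate 48 h, interpolate endpoints linearly. Abbreviation: GI50, concentration required for 50% inhibition of growth.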 Active and inactive are the calls of the source. No stated cut-off is given here; in the data, active = GI50 up to about 1.1 µM and inactive = higher.

Tests used:
Assay in all cases: NCI tumour cell line growth inhibition, 48 h
[1] = tested on: CCRF-CEM
[2] = tested on: PC-3
[3] = tested on: NCI-H522
[4] = tested on: EKVX
[5] = tested on: UACC-257
[6] = tested on: NCI-H23
[7] = tested on: T47D
[8] = tested on: UACC-62
[9] = tested on: MDA-MB-435
[10] = tested on: HT-29
[11] = tested on: SW-620
[12] = tested on: RXF 393
[13] = tested on: KM12
[14] = tested on: NCI/ADR-RES
[15] = tested on: DU-145
[16] = tested on: UO-31
[17] = tested on: Malme-3M
[18] = tested on: SK-MEL-2
[19] = tested on: SNB-19
[20] = tested on: HCC 2998

Structure (SMILES)	GI50 [1]	GI50 [2]	GI50 [3]	GI50 [4]	GI50 [5]	GI50 [6]	GI50 [7]	GI50 [8]	GI50 [9]	GI50 [10]	GI50 [11]	GI50 [12]	GI50 [13]	GI50 [14]	GI50 [15]	GI50 [16]	GI50 [17]	GI50 [18]	GI50 [19]	GI50 [20]
COC(=O)c1c(C#N)[nH]c(-c2ccsc2)c1C(=O)OC	> 100 µM (inactive)	70.6 µM (inactive)	> 100 µM (inactive)	> 100 µM (inactive)	40.6 µM (inactive)	> 100 µM (inactive)	37.1 µM (inactive)	76 µM (inactive)	> 100 µM (inactive)	> 100 µM (inactive)	> 100 µM (inactive)	> 100 µM (inactive)	> 100 µM (inactive)	> 100 µM (inactive)	> 100 µM (inactive)	56.4 µM (inactive)	> 100 µM (inactive)	> 100 µM (inactive)		
COC(=O)C1=CS/C(=C2\S[C@@H]3[C@H](S2)[C@H]2C=C[C@@H]3C2)S1	17.6 µM (inactive)	51.6 µM (inactive)			66.5 µM (inactive)	> 100 µM (inactive)	> 100 µM (inactive)	12.5 µM (inactive)	2.06 µM (inactive)	13.1 µM (inactive)	13.1 µM (inactive)	29.6 µM (inactive)	> 100 µM (inactive)	9.66 µM (inactive)	> 100 µM (inactive)	46.1 µM (inactive)	> 100 µM (inactive)	32.5 µM (inactive)	77.1 µM (inactive)	
CCCCCCCCCC(=O)Oc1cccc2onc(C)c12	> 100 µM (inactive)		> 100 µM (inactive)	> 100 µM (inactive)	> 100 µM (inactive)	> 100 µM (inactive)		> 100 µM (inactive)		> 100 µM (inactive)	> 100 µM (inactive)	> 100 µM (inactive)	77.4 µM (inactive)			40.8 µM (inactive)	> 100 µM (inactive)	> 100 µM (inactive)	> 100 µM (inactive)	79.1 µM (inactive)
COc1ccc(/C=C2\C[C@H]3[C@@H]4CC=C5C[C@@H](O)CC[C@]5(C)[C@H]4CC[C@]3(C)\C2=N\O)cc1	4.58 µM (inactive)	8.45 µM (inactive)	4.97 µM (inactive)	1.41 µM (inactive)	7.21 µM (inactive)	16.9 µM (inactive)	1.26 µM (inactive)	17.7 µM (inactive)	10.5 µM (inactive)	16.1 µM (inactive)	26.7 µM (inactive)	12.7 µM (inactive)	16.8 µM (inactive)	19.4 µM (inactive)	22.4 µM (inactive)	14.3 µM (inactive)	24.9 µM (inactive)	15.6 µM (inactive)	25.8 µM (inactive)	
O=NN(CCCl)C(=O)N[C@H]1CC[C@@H](C(=O)O)CC1	36.6 µM (inactive)		23 µM (inactive)	> 100 µM (inactive)	> 100 µM (inactive)	97.7 µM (inactive)		21.3 µM (inactive)		> 100 µM (inactive)	> 76.6 µM (inactive)	> 100 µM (inactive)	> 100 µM (inactive)	> 100 µM (inactive)		> 100 µM (inactive)	> 96.2 µM (inactive)	> 100 µM (inactive)	70 µM (inactive)	> 100 µM (inactive)
O=C(c1ccccc1)C(c1ccccc1)C1(O)C(=O)Nc2c(Cl)ccc(Cl)c21 (centres undefined)	12.2 µM (inactive)		18.5 µM (inactive)	18.2 µM (inactive)	15.4 µM (inactive)	16.3 µM (inactive)		15.6 µM (inactive)		19.9 µM (inactive)	16.7 µM (inactive)	19.5 µM (inactive)	18.2 µM (inactive)			20.2 µM (inactive)	17.4 µM (inactive)	21.2 µM (inactive)	30.3 µM (inactive)	30.8 µM (inactive)
CC(C)(C)NCC(O)COc1cccc2[nH]c(C#N)cc12 (centres undefined) [CYANOPINDOLOL]		> 100 µM (inactive)	27.2 µM (inactive)	> 100 µM (inactive)		> 100 µM (inactive)	> 100 µM (inactive)	> 100 µM (inactive)	> 100 µM (inactive)	> 100 µM (inactive)	> 100 µM (inactive)		> 100 µM (inactive)	> 100 µM (inactive)	> 100 µM (inactive)	> 100 µM (inactive)	> 100 µM (inactive)	> 100 µM (inactive)	> 100 µM (inactive)	
C/C(CN1C(=O)c2ccccc2C1=O)=N\NS(C)(=O)=O	> 100 µM (inactive)		> 100 µM (inactive)	> 100 µM (inactive)	> 100 µM (inactive)	> 100 µM (inactive)		> 100 µM (inactive)		> 100 µM (inactive)	> 100 µM (inactive)	> 100 µM (inactive)	> 100 µM (inactive)			> 100 µM (inactive)	> 100 µM (inactive)	> 100 µM (inactive)	> 100 µM (inactive)	> 100 µM (inactive)
C=C(C)[C@H]1CC(=O)/C(C)=C\CC/C(C)=C/CC[C@@]2(C)O[C@@H]2C1	35.1 µM (inactive)	24.8 µM (inactive)			81.7 µM (inactive)	22.3 µM (inactive)		8.47 µM (inactive)	17 µM (inactive)	16.3 µM (inactive)	46.3 µM (inactive)		20.8 µM (inactive)	21.8 µM (inactive)	17.7 µM (inactive)	20.7 µM (inactive)	36.8 µM (inactive)	35.8 µM (inactive)	59.8 µM (inactive)	34.5 µM (inactive)
O=C(O)CCNS(=O)(=O)c1ccc([N+](=O)[O-])cc1	> 100 µM (inactive)		> 100 µM (inactive)	> 100 µM (inactive)	> 100 µM (inactive)	> 100 µM (inactive)		> 100 µM (inactive)		> 100 µM (inactive)	> 100 µM (inactive)	> 100 µM (inactive)	> 100 µM (inactive)			66.8 µM (inactive)	> 100 µM (inactive)	> 100 µM (inactive)	> 100 µM (inactive)	> 100 µM (inactive)
CCOC(=O)C1S/C(=N\c2ccc(Cl)c(Cl)c2)N=C1C (centres undefined)	13.2 µM (inactive)		24.7 µM (inactive)	> 100 µM (inactive)	87.1 µM (inactive)	36.7 µM (inactive)		96.8 µM (inactive)		19.7 µM (inactive)	38 µM (inactive)	13 µM (inactive)	27.9 µM (inactive)			92.9 µM (inactive)	51.6 µM (inactive)	95.1 µM (inactive)	45.6 µM (inactive)	> 100 µM (inactive)
O=C(O)c1cccc(S(=O)(=O)NN2C(=O)CSC2c2ccccc2)c1 (centres undefined)	> 100 µM (inactive)	> 100 µM (inactive)	27.6 µM (inactive)	> 100 µM (inactive)	> 100 µM (inactive)	> 100 µM (inactive)	> 100 µM (inactive)	> 100 µM (inactive)	> 100 µM (inactive)	> 100 µM (inactive)	> 100 µM (inactive)	> 100 µM (inactive)	> 100 µM (inactive)		> 100 µM (inactive)	> 100 µM (inactive)	> 100 µM (inactive)	> 100 µM (inactive)	> 100 µM (inactive)	> 100 µM (inactive)
O=C(Cc1ccccc1)NNc1nc(NNC(=O)c2ccncc2)nc(Nc2ccccc2)n1	> 10 µM (inactive)			> 10 µM (inactive)	> 10 µM (inactive)		> 10 µM (inactive)	> 10 µM (inactive)		> 10 µM (inactive)			> 10 µM (inactive)	> 10 µM (inactive)	> 10 µM (inactive)	1.12 µM (active)	> 10 µM (inactive)			> 10 µM (inactive)
Cn1nc2n(c1=O)CCCN2	> 100 µM (inactive)	> 100 µM (inactive)	> 100 µM (inactive)	> 100 µM (inactive)	> 100 µM (inactive)	> 100 µM (inactive)			> 100 µM (inactive)	> 100 µM (inactive)	> 100 µM (inactive)	> 100 µM (inactive)	> 100 µM (inactive)	> 100 µM (inactive)	> 100 µM (inactive)		> 100 µM (inactive)		> 100 µM (inactive)	> 100 µM (inactive)
Cc1ccc2n(c1)cc(-c1ccc(/C=N/NC(=N)N/N=C/c3ccc(-c4cn5cc(C)ccc5[n+]4C)cc3)cc1)[n+]2C	> 100 µM (inactive)	> 100 µM (inactive)	> 100 µM (inactive)	> 100 µM (inactive)	50.6 µM (inactive)		> 100 µM (inactive)		35.6 µM (inactive)	> 100 µM (inactive)	> 100 µM (inactive)		> 100 µM (inactive)	> 100 µM (inactive)		25.6 µM (inactive)			> 100 µM (inactive)	> 100 µM (inactive)
CC(=O)OC1[C@H](OC(C)=O)C2=C(C)[C@@H](OC(C)=O)C[C@@]2(C(C)(C)O)[C@@H](OC(C)=O)[C@H]2[C@@]1(C)[C@@H](OC(C)=O)CC(OC(C)=O)[C@]21CO1 (some centres undefined)	> 100 µM (inactive)	> 100 µM (inactive)	> 100 µM (inactive)	> 100 µM (inactive)	> 100 µM (inactive)	> 100 µM (inactive)	> 100 µM (inactive)	> 100 µM (inactive)	> 100 µM (inactive)	> 100 µM (inactive)	> 100 µM (inactive)	> 100 µM (inactive)	> 100 µM (inactive)		> 100 µM (inactive)	> 100 µM (inactive)	> 100 µM (inactive)	> 100 µM (inactive)	> 100 µM (inactive)	
N#Cc1c2c(c(Nc3cccc(C(F)(F)F)c3)n3c1nc1ccccc13)CCC2			> 100 µM (inactive)	> 100 µM (inactive)	> 100 µM (inactive)	> 100 µM (inactive)	> 100 µM (inactive)		> 100 µM (inactive)	> 100 µM (inactive)	> 100 µM (inactive)	> 100 µM (inactive)	> 100 µM (inactive)	> 100 µM (inactive)	> 100 µM (inactive)		> 100 µM (inactive)			
